Laboratory results as given in patent US20160220590A1, “Formulations and Dosage Forms of Oxidized Phospholipids” (Vascular Biogenics Ltd., priority 2011, published 2016).

Assays:
[1] = Stability of VB-201 in Lauroglycol FCC; format: physicochemical; settings: over the course of 66 days; data not shown
From the text: (§1) VB-201 was also found to be stable in Lauroglycol FCC over the course of 66 days (data not shown).

[2] = Solubility of VB-201 in molten PEG6000; format: physicochemical; settings: 65° C. to 105° C., 30 hours; no detectable VB-201
Protocol: Nine pieces of caked, non-ground VB-201 were submerged in molten PEG6000 at 65° C. and stirred slowly using a paddle mixer. The mix was held for approximately two hours at this temperature, examined visually for the dissolution state of the VB-201, and three samples of the liquid PEG6000 were then taken for analysis. The temperature was then raised by 10° C. and the process was repeated. The process was repeated in 10° C. steps until the mix reached a final temperature of 105° C. The entire process lasted 30 hours.
After 30 hours and at a temperature of 105° C., the PEG6000 had slowly turned lightly yellow (normal for prolonged heating of PEG6000 in air), yet there was no significant visible dissolution of VB-201 or reduction in size of the VB-201 pieces. After taking the final analytical samples the VB-201 pieces were removed from the melt, dried from PEG6000, and weighed.

[3] = Pharmacokinetic study, single oral dose of 40 mg VB-201 to human subjects; format: in vivo; settings: single oral dose 40 mg VB-201, in all subjects
Protocol: Pharmacokinetic studies were performed using two different VB-201 formulations (formulation 10 of Example 13 and formulation 4 of Example 11). Single oral doses of 40 mg VB-201 were administered to 26 human subjects for each formulation, and the VB-201 plasma concentrations were measured for a period of 144 hours after dosing for each subject.

[4] = Aqueous solubility of VB-201; format: physicochemical; settings: at each tested pH: 0.1 M HCl (pH 1), 50 mM phosphate buffers (pH 5 and 7)
Protocol: The aqueous solubility of VB-201 was determined by suspending VB-201 in aqueous solutions of 0.1 M HCl (pH 1) or in 50 mM phosphate buffers (pH 5 and 7). After initial hand mixing, the preparations were further mixed by vortexing and bath sonication to try to bring about dissolution of the drug. Optical microscopy was used to examine for the presence of undissolved material. […] Thus, VB-201′ is relatively water-soluble.

[5] = oral, daily dosages of 80 mg VB-201 per day or less; cited from earlier work
[6] = Solubility of VB-201 in Lauroglycol FCC; format: physicochemical; settings: in Lauroglycol FCC (propylene glycol laurate)
From the text: as §1

For `CCCCCCCCCCCCCCCCOCC(COP(=O)([O-])OCC[N+](C)(C)C)OCCCCC(=O)O` (stereo not drawn) [VB-201, 1-hexadecyl-2-(4′-carboxybutyl)-glycero-3-phosphocholine], the “stability in Lauroglycol FCC” value [1] was “stable”, the “VB-201 concentration in molten PEG6000” value [2] was under 0.5 mg/gram and the “time VB-201 plasma concentrations were above the assay limit of quantification” value [3] was “at least 96 hours”. The “aqueous solubility of VB-201” value [4] was over 225 mg/gram, the safety and tolerability [5] was “safe, well-tolerated” and the “solubility of VB-201 in Lauroglycol FCC” value [6] was “at least 255 mg per gram”.
